Experimental data as given in PMC11643612, “Insights into the Metabolism, Disposition, and Quantitative Profile of mGlu5 NAM AE90015 with Metabolite Identification and a Novel Integration Method” (Molecules, 2024).

Legend:
[1] = in vivo rat oral dose study: metabolism, excretion and disposition (plasma, tissues, urine, bile; UV/mass integration)
Protocol: The in vivo rat studies were performed following the administration of a 30 mg/kg dose of AE90015. Plasma, urine, and tissue samples were collected from two rats in a metabolic cage, and bile samples were collected from two bile duct-cannulated rats. The urine and bile samples were collected from 0 to 24 h post-administration. The tissues and plasma samples were collected at 24 h post-administration. This study was carried out to explore all metabolites, particularly the phase II metabolites, and to identify the metabolites being excreted and understand their excretion pathways. Additionally, determining whether AE90015 itself is directly cleared through urine and bile is crucial for explaining its pharmacokinetic clearance value in rats.
For quantification, a photodiode array detector connected to UPLC in parallel to the LTQ-Obitrap mass spectrometer, detecting at 260 nm absorption, and combined with mass response was used to quantitatively measure, sometimes with compromised accuracy, the metabolites and AE90015 in all of the samples. For well-separated metabolites in the liquid chromatogram, their UV 260 nm absorption peak integration represented their molar response. When the metabolites’ UV peaks overlap with each other, UV integration is not feasible, but the integration of extracted metabolite mass is much easier. […] It was assumed that each metabolite’s UV integration-to-mass integration ratio is equal, allowing for a good approximation within the same category of metabolites. This assumption was validated by many of the metabolites measured in this study and previous studies. When no UV integration is available, multiplying the mass integration by the […] yielded in the UV integration.
The distribution of normalized integration values for the parent drug AE90015 and its metabolites in plasma, urine, bile, and tissues, including liver, brain, and kidney, is summarized in Table 1. […] In this experiment, all amounts of AE90015 and its metabolites in the plasma, urine, and bile samples were obtained from UV responses, which were adjusted to their total volume in the rat. For the liver, brain, and kidney tissues, these amounts were normalized to tissue weight. The sample dilution factors used in the analysis were also converted back.
The values in Table 1 represent the relative molar amounts of each metabolite of AE90015 remaining in the plasma and tissues or excreted in urine or bile 24 h post-dose. These values were derived either directly from UV 260 nm integration or from mass response integration, multiplied by the UV/mass ratio for each metabolite category, and further adjusted to plasma, urine volume, or tissue weight. The details of the calculation methods are provided in Section 3.
Two rats weighing 0.266 and 0.252 kg received 30 mg/kg oral doses of AE90015, formulated with hydroxypropyl-beta-cyclodextrin, for the bile collection study, which was carried out for 0–24 h, and a total of 33.6 mL of bile was pooled together from the 2 rats. The two rats used for the bile collection study underwent bile duct cannulation surgery 2 days before the AE90015 dosing and bile collection. Before the surgery, the rats were anesthetized with ketamine (43 mg/kg body weight) and xylazine (8.7 mg/kg body weight). After surgical skin preparation, two catheters (intestinal and biliary) were passed subcutaneously from the dorsal scapular region into the abdomen. Through ventral midline abdominal incision, the bile duct was isolated and ligated, and the biliary catheter was inserted into the bile duct and secured. The intestinal catheter tip was placed into the duodenum just distal to the entry point of the bile duct and secured by the placement of a purse string suture. […]

[2] = tested on: human mGlu5 receptor; design: method as in PMID 34469715; conditions: NAM; cited from earlier work
[3] = tested on: mGlu7; conditions: cited from earlier work
[4] = tested on: mGlu1; conditions: cited from earlier work
[5] = tested on: mGlu4; conditions: cited from earlier work
[6] = tested on: 79 other targets; conditions: cited from earlier work
[7] = rat PK, in-house experiment; conditions: in vivo
[8] = tested on: mGlu2; conditions: cited from earlier work
[9] = tested on: mGlu3; conditions: cited from earlier work
[10] = rats (n = 2), 24 h after 30 mg/kg oral, % of all AE90015-related material

Excrete from Bile, normalized relative molar amount ([1]; bile duct-cannulated rats (n = 2), bile 0-24 h after 30 mg/kg oral, % of all AE90015-related material): 0.39% | share of total clearance by mono-oxidation (primary clearance pathway) ([1]; rat, 30 mg/kg oral, 24 h): 96% | direct excretion via renal and bile routes ([1]; rat, 30 mg/kg oral, 24 h, unchanged parent): 0.5% | Remain in Brain, normalized relative molar amount [1, 10]: 0.66% | Remain in Kidney, normalized relative molar amount [1, 10]: 0.16% | Remain in Liver, normalized relative molar amount [1, 10]: 0.98% | Remain in Plasma, normalized relative molar amount [1, 10]: 1.47% | Excrete from Urine, normalized relative molar amount ([1]; rats (n = 2), urine 0-24 h after 30 mg/kg oral, % of all AE90015-related material): 0.10% | clearance [7]: 38 mL/min/kg
SMILES: Cc1cncc(C(=O)NC23CC4CC(CC(NC(=O)c5ccccn5)(C4)C2)C3)n1 [AE90015]
affinity [2]: 18.5 nM | efficacy or affinity for mGlu7 [3]: no significant efficacy or affinity | efficacy or affinity for mGlu1 [4]: no significant efficacy or affinity | efficacy or affinity for mGlu4 [5]: no significant efficacy or affinity | selectivity for mGlu5, preference compared to the 79 other targets tested [6]: over 1000 fold | efficacy or affinity for mGlu2 [8]: no significant efficacy or affinity | efficacy or affinity for mGlu3 [9]: no significant efficacy or affinity
